Results published in PubChem BioAssay (NCI).
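Five concentrations, 48 hours, 96-well plates. At the GI50, growth is halved. TGI: concentration producing complete growth inhibition.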

Assays:
Experiment in all cases: NCI anticancer screen, dose series, 48 h
A498 renal = system: A498 renal
U251 CNS = system: U251 CNS
SN12C renal = system: SN12C renal
NCI-H23 lung = system: NCI-H23 lung
HT29 colon = system: HT29 colon
786-0 renal = system: 786-0 renal
NCI/ADR-RES ovarian = system: NCI/ADR-RES ovarian
ACHN renal = system: ACHN renal
SF-268 CNS = system: SF-268 CNS
HOP-92 NSCLC = system: HOP-92 NSCLC
COLO 205 colon = system: COLO 205 colon
KM12 colon = system: KM12 colon
MDA-MB-468 breast = system: MDA-MB-468 breast
A549 NSCLC = system: A549 NSCLC
MDA-MB-435 = system: MDA-MB-435
TK-10 renal = system: TK-10 renal
NCI-H460 lung = system: NCI-H460 lung
UACC-62 melanoma = system: UACC-62 melanoma
OVCAR-4 ovarian = system: OVCAR-4 ovarian
NCI-H522 lung = system: NCI-H522 lung
LOX IMVI melanoma = system: LOX IMVI melanoma
SF-295 CNS = system: SF-295 CNS
SK-MEL-5 melanoma = system: SK-MEL-5 melanoma
SK-MEL-2 melanoma = system: SK-MEL-2 melanoma
HOP-62 NSCLC = system: HOP-62 NSCLC
UACC-257 melanoma = system: UACC-257 melanoma
HCT-15 colon = system: HCT-15 colon
MCF7 breast = system: MCF7 breast
OVCAR-3 ovarian = system: OVCAR-3 ovarian
K-562 leukemia = system: K-562 leukemia
MALME-3M melanoma = system: MALME-3M melanoma
OVCAR-5 ovarian = system: OVCAR-5 ovarian
HL-60(TB) leukemia = system: HL-60(TB) leukemia
HCC-2998 colon = system: HCC-2998 colon
DU-145 prostate = system: DU-145 prostate
RPMI-8226 leukemia = system: RPMI-8226 leukemia
CAKI-1 renal = system: CAKI-1 renal
IGROV1 ovarian = system: IGROV1 ovarian
NCI-H226 lung = system: NCI-H226 lung
M14 melanoma = system: M14 melanoma
HS 578T breast = system: HS 578T breast
OVCAR-8 ovarian = system: OVCAR-8 ovarian
SK-OV-3 ovarian = system: SK-OV-3 ovarian
SK-MEL-28 melanoma = system: SK-MEL-28 melanoma
MOLT-4 leukemia = system: MOLT-4 leukemia
T-47D breast = system: T-47D breast
SNB-19 CNS = system: SNB-19 CNS
MDA-MB-231 breast = system: MDA-MB-231 breast
BT-549 breast = system: BT-549 breast
RXF 393 renal = system: RXF 393 renal
PC-3 prostate = system: PC-3 prostate
HCT-116 colon = system: HCT-116 colon
EKVX NSCLC = system: EKVX NSCLC
SNB-75 CNS = system: SNB-75 CNS
SR leukemia = system: SR leukemia
UO-31 renal = system: UO-31 renal
SW-620 colon = system: SW-620 colon
SF-539 CNS = system: SF-539 CNS
CCRF-CEM leukemia = system: CCRF-CEM leukemia

SMILES: CCc1ccccc1NC(=O)N/C(N)=N/c1nc2ccccc2s1
- GI50 (A498 renal): 16400 nM
- TGI (A498 renal): 45600 nM
- GI50 (U251 CNS): 37 nM
- TGI (U251 CNS): 5640 nM
- GI50 (SN12C renal): 43.8 nM
- TGI (SN12C renal): 6910 nM
- GI50 (NCI-H23 lung): 45.4 nM
- TGI (NCI-H23 lung): 5480 nM
- GI50 (HT29 colon): 31.6 nM
- TGI (HT29 colon): 135 nM
- GI50 (786-0 renal): 89.8 nM
- TGI (786-0 renal): 5140 nM
- GI50 (NCI/ADR-RES ovarian): 24.4 nM
- TGI (NCI/ADR-RES ovarian): 64.3 nM
- GI50 (ACHN renal): 79.3 nM
- TGI (ACHN renal): 6210 nM
- GI50 (SF-268 CNS): 336 nM
- TGI (SF-268 CNS): > 100000 nM
- GI50 (HOP-92 NSCLC): 3090 nM
- TGI (HOP-92 NSCLC): 29600 nM
- GI50 (COLO 205 colon): 29.4 nM
- TGI (COLO 205 colon): 94 nM
- GI50 (KM12 colon): 38.1 nM
- TGI (KM12 colon): 11100 nM
- GI50 (MDA-MB-468 breast): 23.3 nM
- TGI (MDA-MB-468 breast): 62.5 nM
- GI50 (A549 NSCLC): 64 nM
- TGI (A549 NSCLC): > 38800 nM
- GI50 (MDA-MB-435): < 14.6 nM
- TGI (MDA-MB-435): 38.9 nM
- GI50 (TK-10 renal): 4490 nM
- TGI (TK-10 renal): 50000 nM
- GI50 (NCI-H460 lung): 35.4 nM
- TGI (NCI-H460 lung): 3820 nM
- GI50 (UACC-62 melanoma): 38.3 nM
- TGI (UACC-62 melanoma): 22700 nM
- GI50 (OVCAR-4 ovarian): 1670 nM
- TGI (OVCAR-4 ovarian): 24700 nM
- GI50 (NCI-H522 lung): < 16.7 nM
- TGI (NCI-H522 lung): 90 nM
- GI50 (LOX IMVI melanoma): 43.1 nM
- TGI (LOX IMVI melanoma): 4620 nM
- GI50 (SF-295 CNS): 23.4 nM
- TGI (SF-295 CNS): 2040 nM
- GI50 (SK-MEL-5 melanoma): 31.1 nM
- TGI (SK-MEL-5 melanoma): 116 nM
- GI50 (SK-MEL-2 melanoma): 33.8 nM
- TGI (SK-MEL-2 melanoma): 10800 nM
- GI50 (HOP-62 NSCLC): 69.6 nM
- TGI (HOP-62 NSCLC): 4550 nM
- GI50 (UACC-257 melanoma): 4670 nM
- TGI (UACC-257 melanoma): > 54400 nM
- GI50 (HCT-15 colon): 29.3 nM
- TGI (HCT-15 colon): 7030 nM
- GI50 (MCF7 breast): 32.9 nM
- TGI (MCF7 breast): 12300 nM
- GI50 (OVCAR-3 ovarian): 39.6 nM
- TGI (OVCAR-3 ovarian): 1550 nM
- GI50 (K-562 leukemia): 23.3 nM
- TGI (K-562 leukemia): 14400 nM
- GI50 (MALME-3M melanoma): 62.2 nM
- TGI (MALME-3M melanoma): 11300 nM
- GI50 (OVCAR-5 ovarian): 53.3 nM
- TGI (OVCAR-5 ovarian): 12000 nM
- GI50 (HL-60(TB) leukemia): 33.4 nM
- TGI (HL-60(TB) leukemia): 6310 nM
- GI50 (HCC-2998 colon): 29.1 nM
- TGI (HCC-2998 colon): 3050 nM
- GI50 (DU-145 prostate): 48.3 nM
- TGI (DU-145 prostate): 2500 nM
- GI50 (RPMI-8226 leukemia): 44.5 nM
- TGI (RPMI-8226 leukemia): 21100 nM
- GI50 (CAKI-1 renal): 63.1 nM
- TGI (CAKI-1 renal): 7200 nM
- GI50 (IGROV1 ovarian): 56.7 nM
- TGI (IGROV1 ovarian): 15200 nM
- GI50 (NCI-H226 lung): 144 nM
- TGI (NCI-H226 lung): 1520 nM
- GI50 (M14 melanoma): 28.6 nM
- TGI (M14 melanoma): 911 nM
- GI50 (HS 578T breast): 28.1 nM
- TGI (HS 578T breast): 7270 nM
- GI50 (OVCAR-8 ovarian): 37 nM
- TGI (OVCAR-8 ovarian): 3520 nM
- GI50 (SK-OV-3 ovarian): 150 nM
- TGI (SK-OV-3 ovarian): 33600 nM
- GI50 (SK-MEL-28 melanoma): 2830 nM
- TGI (SK-MEL-28 melanoma): 21300 nM
- GI50 (MOLT-4 leukemia): 62.8 nM
- TGI (MOLT-4 leukemia): 18700 nM
- GI50 (T-47D breast): 15100 nM
- TGI (T-47D breast): > 100000 nM
- GI50 (SNB-19 CNS): 51.7 nM
- TGI (SNB-19 CNS): 14600 nM
- GI50 (MDA-MB-231 breast): 40.5 nM
- TGI (MDA-MB-231 breast): 598 nM
- GI50 (BT-549 breast): 91 nM
- TGI (BT-549 breast): 1790 nM
- GI50 (RXF 393 renal): 22.5 nM
- TGI (RXF 393 renal): 7530 nM
- GI50 (PC-3 prostate): 52.8 nM
- TGI (PC-3 prostate): 18800 nM
- GI50 (HCT-116 colon): 37.7 nM
- TGI (HCT-116 colon): 1470 nM
- GI50 (EKVX NSCLC): 50.3 nM
- TGI (EKVX NSCLC): 16100 nM
- GI50 (SNB-75 CNS): < 18 nM
- TGI (SNB-75 CNS): 4640 nM
- GI50 (SR leukemia): 120 nM
- TGI (SR leukemia): 21600 nM
- GI50 (UO-31 renal): 97.9 nM
- TGI (UO-31 renal): 34600 nM
- GI50 (SW-620 colon): 42.2 nM
- TGI (SW-620 colon): 15700 nM
- GI50 (SF-539 CNS): 21.1 nM
- TGI (SF-539 CNS): 64.2 nM
- GI50 (CCRF-CEM leukemia): 38.2 nM
- TGI (CCRF-CEM leukemia): 13500 nM
